Source: patent publication US20250122207A1, “AP2 ASSOCIATED KINASE 1 INHIBITORS AND USES THEREOF” (Satellos Bioscience Inc., priority 2023, published 2025)
Like-named read-outs stand apart in the source and are kept apart here.

How the values were obtained:
AAK1 = AAK1 (Homo sapiens, UniProt Q2M2I8); assay: pAP2M1 cell-based assay (in-cell Western)
Description: pAP2M1 Cell-Based Assay (in-Cell Western):
The plate was read on Licor Odyssey CLx imaging system (LICOR) to acquire fluorescence intensity at 700 channel and 800 channel.
Data analysis: Fluorescence intensity at 700 channel served as internal standard and 800 channel were normalized with 700 channel.

[1] = molecular target: T1, AAK1 (amino acids T27-A365) (Homo sapiens, UniProt Q2M2I8); assay: AAK1 pSENs assay; assay type: biochemical
T1 construct: against AAK1 (amino acids T27-A365); 6His (N, cleaved yes)
T1 sequence (Q2M2I8 27-365): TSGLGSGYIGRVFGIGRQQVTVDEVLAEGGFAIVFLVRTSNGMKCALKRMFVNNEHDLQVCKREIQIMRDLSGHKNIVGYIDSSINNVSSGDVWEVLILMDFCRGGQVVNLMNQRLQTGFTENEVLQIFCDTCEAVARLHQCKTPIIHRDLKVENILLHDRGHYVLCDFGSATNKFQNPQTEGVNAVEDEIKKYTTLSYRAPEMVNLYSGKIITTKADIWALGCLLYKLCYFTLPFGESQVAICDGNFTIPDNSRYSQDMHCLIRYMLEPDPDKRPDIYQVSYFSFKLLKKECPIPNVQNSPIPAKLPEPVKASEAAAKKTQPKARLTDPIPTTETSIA
Method in brief: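 Biotinylated, tag-free AAK1 T27-A365 expressed in E. coli was held at 20 nM in enzyme solution (HEPES pH 7.5, 10 mM MgCl2, DTT, EGTA, Brij35, BSA) and preincubated with compound for 15 min at 25 °C. The reaction was started with an equal volume of substrate solution containing 30 uM AQT0759 peptide and 70 uM ATP. IC50 determined.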

[2] = molecular target: T2, BIKE (amino acids S38-E345) (K320A, K321A) (Homo sapiens, UniProt Q9NSY1, K320A/K321A); assay: BIKE pSENs assay; assay type: biochemical
T2 construct: against BIKE (amino acids S38-E345) (K320A, K321A); 6His (N, cleaved yes)
T2 sequence (Q9NSY1 38-345 K320A/K321A): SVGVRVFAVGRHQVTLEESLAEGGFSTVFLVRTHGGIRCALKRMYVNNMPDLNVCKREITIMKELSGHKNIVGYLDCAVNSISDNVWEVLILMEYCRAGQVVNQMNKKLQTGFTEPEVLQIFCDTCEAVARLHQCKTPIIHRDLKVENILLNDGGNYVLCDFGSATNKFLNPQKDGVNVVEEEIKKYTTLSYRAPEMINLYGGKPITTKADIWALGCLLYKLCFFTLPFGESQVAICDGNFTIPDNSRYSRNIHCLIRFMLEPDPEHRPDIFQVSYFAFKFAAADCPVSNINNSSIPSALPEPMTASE
Protocol: The recombinant proteins were independently expressed in Escherichia coli BL21(DE3) cells cultured in Luria-Bertani (LB) medium until OD600 reached 0.6-0.8, then cooled to 15° C. and supplemented with 0.5 mM isopropyl 1-thio-D-galactopyranoside (IPTG) induce protein expression 16 h. Cells were harvested and resuspended in lysis buffer (50 mM HEPES pH 7.5, 500 mM NaCl, 5 mM imidazole, 5% glycerol, 0.5 mM Tris (2-carboxyethyl) phosphine (TCEP), cOmplete Protease Inhibitor Tablet (Roche)) and lysed by microfludics high pressure homogenizer (UH-06, Union-Biotech). Proteins were purified using […] chromatography (His FF column, Bestchrom) and eluted stepwise in binding buffer with 20-300 mM imidazole. Removal of the hexahistidine tag was performed at 4° C. overnight using recombinant TEV protease and reacted with BirA to obtain the corresponding biotinylated-AAK1, BIKE or GAK proteins. Further separated in the reverse Strep column (Strep-Tactin® XT, IBA). The Biotin elution sample was collected containing untagged biotinylated protein was then purified by Ion-exchange chromatography (Mono Q 10/100 GL, Cytiva) and Size-exclusion chromatography (HiLoad 16/600 Superdex 200 pg, Cytiva). The pure protein was stored in a storage buffer 50 mM HEPES (pH 7.5), 300 mM NaCl, 5% glycerol at −80° C. Protein were characterized by SDS-PAGE, LC-MS and aSEC.
BIKE protein was dissolved at 20 nM in 1× enzyme solution (50 mM HEPES pH7.5, 10 mM MgCl2, 1 mM DTT, 1% glycerol, 0.5 mM EGTA, 0.01% Briji35, 0.02% BSA) and 12.5 ul was incubated with 250 nl DMSO or 250 nl compound in DMSO at 25° C. for 15 min. The reaction was started by addition of 12.5 ul of 30 uM AQT0759 (Assayquant, CSKS-AQT0759B) and 40 uM ATP which were diluted in 1× substrate dilution buffer (50 mM HEPES pH7.5, 10 mM MgCl2, 1 mM DTT, 1% glycerol, 0.5 mM EGTA, 0.01% Briji35).

[3] = Hela cells co-transfected with AP2M1 and AAK1, 3 hr treatment, class symbols, read-out: AAK1 In-cell Western: IC50
[4] = class symbols, read-out: AAK1 pSENs: EIC50
[5] = class symbols, read-out: BIKE pSENs: IC50

Chain of AAK1 (Q2M2I8 whole entry): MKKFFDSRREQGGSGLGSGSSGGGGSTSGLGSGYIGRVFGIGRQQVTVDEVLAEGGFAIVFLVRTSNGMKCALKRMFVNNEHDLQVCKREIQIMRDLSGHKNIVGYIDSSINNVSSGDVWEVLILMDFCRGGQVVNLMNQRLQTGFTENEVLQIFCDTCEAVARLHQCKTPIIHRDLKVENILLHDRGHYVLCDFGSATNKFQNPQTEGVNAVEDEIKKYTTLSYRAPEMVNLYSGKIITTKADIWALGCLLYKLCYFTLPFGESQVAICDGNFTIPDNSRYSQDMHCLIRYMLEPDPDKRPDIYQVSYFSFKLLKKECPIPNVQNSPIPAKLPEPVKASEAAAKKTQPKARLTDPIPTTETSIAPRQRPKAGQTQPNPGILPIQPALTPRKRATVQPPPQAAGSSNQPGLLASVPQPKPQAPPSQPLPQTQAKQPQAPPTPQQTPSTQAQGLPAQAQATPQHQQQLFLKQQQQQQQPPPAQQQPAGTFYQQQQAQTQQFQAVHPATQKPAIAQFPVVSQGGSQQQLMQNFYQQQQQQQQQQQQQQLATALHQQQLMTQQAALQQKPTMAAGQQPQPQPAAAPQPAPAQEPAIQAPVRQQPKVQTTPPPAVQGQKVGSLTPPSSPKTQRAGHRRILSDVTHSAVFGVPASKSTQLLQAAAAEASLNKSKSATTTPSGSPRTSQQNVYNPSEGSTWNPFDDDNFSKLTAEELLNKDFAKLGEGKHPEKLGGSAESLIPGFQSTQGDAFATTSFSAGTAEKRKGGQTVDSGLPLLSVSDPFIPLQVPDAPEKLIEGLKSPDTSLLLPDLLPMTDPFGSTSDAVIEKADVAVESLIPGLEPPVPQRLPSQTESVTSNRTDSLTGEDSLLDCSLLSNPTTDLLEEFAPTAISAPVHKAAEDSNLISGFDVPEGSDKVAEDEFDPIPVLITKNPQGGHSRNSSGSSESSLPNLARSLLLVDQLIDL

IC50 (AAK1; [3])	IC50 [1, 4]	IC50 [2, 5]	SMILES	IC50 (AAK1)	IC50 [1]	IC50 [2]	AAK1:GAK pSENs Selectivity ([1]; ratio of AAK1 pSENs activity to GAK pSENs activity, class symbols)
0.151 to 0.5 µM	0.001 to 0.05 µM	0.501 to 1.5 µM	C[C@@]1(OC(=O)N2CCN(c3ccn4ncc(-c5cccnc5OC5CC5)c4n3)CC2)CCN(CCO)C1 [Compound I-52, [(3R)-1-(2-hydroxyethyl)-3-methyl-pyrrolidin-3-yl]-4-[3-[2-(cyclopropoxy)-3-pyridyl]pyrazolo[1,5-a]pyrimidin-5-yl]piperazine-1-carboxylate]	–	–	–	–
0.501 to 1.5 µM	0.001 to 0.05 µM	0.151 to 0.5 µM	COC(=O)N1CC(Oc2ncccc2-c2cnn3ccc(N4CCN(C(=O)O[C@@H]5CNC(=O)C5)CC4)nc23)C1 [Compound I-58, [(3S)-5-oxopyrrolidin-3-yl]-4-[3-[2-(1-methoxycarbonylazetidin-3-yl)oxy-3-pyridyl]pyrazolo[1,5-a]pyrimidin-5-yl]piperazine-1-carboxylate]	–	–	–	–
> 1.5 µM	0.001 to 0.05 µM	0.501 to 1.5 µM	CC(=O)N1CC(Oc2ncccc2-c2cnn3ccc(N4CCN(C(=O)O[C@@H]5CNC(=O)C5)CC4)nc23)C1 [Compound I-59, (S)-5-oxopyrrolidin-3-yl 4-(3-(2-((1-acetylazetidin-3-yl)oxy)pyridin-3-yl)pyrazolo[1,5-a]pyrimidin-5-yl)piperazine-1-carboxylate]	–	–	–	–
0.051 to 0.15 µM	0.001 to 0.05 µM	0.051 to 0.15 µM	CC(=O)N1CC(Oc2ncccc2-c2cnn3ccc(NCCN(C)C(=O)OC(C)(C)C)nc23)C1 [Compound I-63, Tert-butyl (2-((3-(2-((1-acetylazetidin-3-yl)oxy)pyridin-3-yl)pyrazolo[1,5-a]pyrimidin-5-yl)amino)ethyl)(methyl)carbamate]	–	–	–	–
0.151 to 0.5 µM	0.001 to 0.05 µM	0.151 to 0.5 µM	COc1ncccc1-c1cnn2ccc(N3CCN(C(=O)O[C@H]4CO[C@H]5OCC[C@H]54)CC3)nc12 [Compound I-65, (3R,3aS,6aR)-hexahydrofuro[2,3-b]furan-3-yl 4-(3-(2-methoxypyridin-3-yl)pyrazolo[1,5-a]pyrimidin-5-yl)piperazine-1-carboxylate]	–	–	–	–
0.501 to 1.5 µM	0.001 to 0.05 µM	0.151 to 0.5 µM	COc1ccccc1-c1cnn2ccc(N3CCN(C(=O)O[C@H]4CO[C@H]5OCC[C@H]54)CC3)nc12 [Compound I-69, (3R,3aS,6aR)-hexahydrofuro[2,3-b]furan-3-yl 4-(3-(2-methoxyphenyl)pyrazolo[1,5-a]pyrimidin-5-yl)piperazine-1-carboxylate]	–	–	–	–
0.151 to 0.5 µM	0.001 to 0.05 µM	0.151 to 0.5 µM	CN1C[C@@H](OC(=O)N2CCN(c3ccn4ncc(-c5cc(F)cnc5OC5CC5)c4n3)CC2)CC1=O [Compound I-86]	–	–	–	–
0.501 to 1.5 µM	0.001 to 0.05 µM	0.151 to 0.5 µM	COCCN1C[C@@H](OC(=O)N2CCN(c3ccn4ncc(-c5cc(F)cnc5OC5CC5)c4n3)CC2)CC1=O [Compound I-89]	–	–	–	–
0.151 to 0.5 µM	0.001 to 0.05 µM	0.051 to 0.15 µM	CN1C[C@@H](OC(=O)N2CCN(c3nc4c(-c5cccnc5OC5CC5)cnn4cc3F)CC2)CC1=O [Compound I-109, [(3S)-1-methyl-5-oxo-pyrrolidin-3-yl]4-[3-[2-(cyclopropoxy)-3-pyridyl]-6-fluoro-pyrazolo[1,5-a]pyrimidin-5-yl]piperazine-1-carboxylate]	–	–	–	–
0.501 to 1.5 µM	0.001 to 0.05 µM	0.501 to 1.5 µM	COCCN1C[C@@H](OC(=O)N2CCN(c3ccn4ncc(-c5cccnc5OC5CC5)c4n3)CC2)CC1=O [Compound I-115, [(3S)-1-(2-methoxyethyl)-5-oxo-pyrrolidin-3-yl]-4-[3-[2-(cyclopropoxy)-3-pyridyl]pyrazolo[1,5-a]pyrimidin-5-yl]piperazine-1-carboxylate]	–	–	–	–
> 1.5 µM	0.051 to 0.15 µM	0.151 to 0.5 µM	CN1C[C@@H](OC(=O)N2CCN(c3nc4c(-c5cccnc5OC5CCOC5)cnn4cc3F)CC2)CC1=O (stereo partly drawn) [Compound I-120, [(3S)-1-methyl-5-oxo-pyrrolidin-3-yl]4-[6-fluoro-3-(2-tetrahydrofuran-3-yloxy-3-pyridyl)pyrazolo[1,5-a]pyrimidin-5-yl]piperazine-1-carboxylate]	–	–	–	–

Second part, the molecule before the results:

SMILES	IC50 (AAK1; [3])	IC50 [1, 4]	IC50 [2, 5]	IC50 (AAK1)	IC50 [1]	IC50 [2]	AAK1:GAK pSENs Selectivity ([1]; ratio of AAK1 pSENs activity to GAK pSENs activity, class symbols)
CN(CCNc1ccn2ncc(-c3cccnc3OC3CC3)c2n1)C(=O)O[C@@H]1CNC(=O)C1 [Compound I-60, [(3S)-5-oxopyrrolidin-3-yl]N-[2-[[3-[2-(cyclopropoxy)-3-pyridyl]pyrazolo[1,5-a]pyrimidin-5-yl]amino]ethyl]-N-methyl-carbamate]	> 1.5 µM	0.051 to 0.15 µM	0.501 to 1.5 µM	–	–	–	–
CN(CCNc1ccn2ncc(-c3cccnc3OC3CN(C(=O)OC(C)(C)C)C3)c2n1)C(=O)OC(C)(C)C [Compound I-62, Tert-butyl3-[[3-[5-[2-[tert-butoxycarbonyl(methyl)amino]ethylamino]pyrazolo[1,5-a]pyrimidin-3-yl]-2-pyridyl]oxy]azetidine-1-carboxylate]	> 1.5 µM	0.001 to 0.05 µM	0.151 to 0.5 µM	–	–	–	–
COC(=O)N1CC(Oc2ncccc2-c2cnn3ccc(NCCN(C)C(=O)OC(C)(C)C)nc23)C1 [Compound I-64, Methyl3-[[3-[5-[2-[tert-butoxycarbonyl(methyl)amino]ethylamino]pyrazolo[1,5-a]pyrimidin-3-yl]-2-pyridyl]oxy]azetidine-1-carboxylate]	0.051 to 0.15 µM	0.001 to 0.05 µM	0.051 to 0.15 µM	–	–	–	–
[2H]C1([2H])N(C(=O)O[C@@H]2CNC(=O)C2)C([2H])([2H])C([2H])([2H])N(c2ccn3ncc(-c4cccnc4OC4CC4)c3n2)C1([2H])[2H] [Compound I-72, [(3S)-5-oxopyrrolidin-3-yl]4-[3-[2-(cyclopropoxy)-3-pyridyl]pyrazolo[1,5-a]pyrimidin-5-yl]-2,2,3,3,5,5,6,6-octadeuterio-piperazine-1-carboxylate]	–	–	–	0.501 to 1.5 µM	0.001 to 0.05 µM	0.151 to 0.5 µM	–
[2H]C1([2H])N(C(=O)O[C@H]2CC(=O)N(C)C2)C([2H])([2H])C([2H])([2H])N(c2ccn3ncc(-c4cccnc4OC4CC4)c3n2)C1([2H])[2H] [Compound I-73, [(3S)-1-methyl-5-oxo-pyrrolidin-3-yl]-4-[3-[2-(cyclopropoxy)-3-pyridyl]pyrazolo[1,5-a]pyrimidin-5-yl]-2,2,3,3,5,5,6,6-octadeuterio-piperazine-1-carboxylate]	–	–	–	0.501 to 1.5 µM	0.001 to 0.05 µM	0.501 to 1.5 µM	A (A: ≤0.015)
[2H]C([2H])([2H])N1C[C@@H](OC(=O)N2CCN(c3ccn4ncc(-c5cccnc5OC5CC5)c4n3)CC2)CC1=O [Compound I-113, [(3S)-5-oxo-1-(trideuteriomethyl)pyrrolidin-3-yl]4-[3-[2-(cyclopropoxy)-3-pyridyl]pyrazolo[1,5-a]pyrimidin-5-yl]piperazine-1-carboxylate]	0.151 to 0.5 µM	–	–	–	0.001 to 0.05 µM	0.501 to 1.5 µM	–
CC(C)N1C[C@@H](OC(=O)N2CCN(c3ccn4ncc(-c5cccnc5OC5CC5)c4n3)CC2)CC1=O [Compound I-114, [(3S)-1-isopropyl-5-oxo-pyrrolidin-3-yl]-4-[3-[2-(cyclopropoxy)-3-pyridyl]pyrazolo[1,5-a]pyrimidin-5-yl]piperazine-1-carboxylate]	> 1.5 µM	0.051 to 0.15 µM	0.501 to 1.5 µM	–	–	–	–
CN1C[C@@H](OC(=O)N2CCN(c3ccn4ncc(-c5cccnc5OC5CCOC5)c4n3)CC2)CC1=O (stereo partly drawn) [Compound I-119, [(3S)-1-methyl-5-oxo-pyrrolidin-3-yl]4-[3-(2-tetrahydrofuran-3-yloxy-3-pyridyl)pyrazolo[1,5-a]pyrimidin-5-yl]piperazine-1-carboxylate]	> 1.5 µM	0.051 to 0.15 µM	0.501 to 1.5 µM	–	–	–	–
